Assay results: US6988613B2, “Composition for IVF” (Novo Nordisk A/S, priority 2001, dated 2006)
In brackets after ≈: the same amount, converted by molar mass. Where two headings read alike, the source gives them in different places.

How the values were obtained:
[1] = Solubility of FF-MAS in water, ethanol and ethanol/water; type: physicochemical
Description: The solubility of a preferred MAS, i.e., FF-MAS, in water is very low, i.e., approximately 20 picogram/ml (corresponding to 2×10^−5 μg/ml). […] According to our preliminary investigations, the highest solubility of FF-MAS in a mixture of ethanol and water (1:2.5) is approximately 0.4 mg/ml. Several other MASs have a similar low solubility in water.

[2] = tested on: oocytes obtained from immature female mice; assay: Germinal vesicle breakdown (GVB) test on mouse oocytes; type: cell-based
Description: Oocytes were obtained from immature female mice (C57BL/6J×DBA/2J F1, Bomholtgaard, Denmark) weighing 13–16 grams, that were kept under controlled temperature (20–22° C.), light (lights on 06.00–18.00) and relative humidity (50–70%). The mice received an intraperitoneal injection of 0.2 ml gonadotropins (Gonal-F, Serono) containing 20 IU FSH and 48 hours later the animals were killed by cervical dislocation. The ovaries were dissected out and the oocytes were isolated in Hx-medium (see below) under a stereo microscope by manual rupture of the follicles using a pair of 27 gauge needles. Spherical oocytes displaying an intact germinal vesicle (hereinafter designated GV) were divided in cumulus enclosed oocytes (hereinafter designated CEO) and naked oocytes (hereinafter designated NO) and placed in α-minimum essential medium (α-MEM without ribonucleosides, Gibco BRL, Cat. No. 22561) supplemented with 3 mg/ml bovine serum albumin (BSA, Sigma Cat. No. A-7030), 5 mg/ml human serum albumin (HSA, State Serum Institute, Denmark), 0.23 mM pyruvate (Sigma, Cat. No S-8636), 2 mM glutamine (Flow Cat. No. 16-801), 100 IU/ml penicillin and 100 μg/ml streptomycin (Flow, Cat No. 16-700). This medium was supplemented with 3 mM hypoxanthine (Sigma Cat. No. H-9377) and designated Hx-medium.
The oocytes were rinsed three times in Hx-medium and oocytes of uniform size were divided into groups of CEO and NO. CEO and NO were cultured in 4-well multidishes (Nunclon, Denmark) in which each well contained 0.4 ml of Hx-medium and the compound to be tested in a concentration of 10 μM. One control well (i.e., 35–45 oocytes cultured in identical medium with no addition of test compound) was always cultured simultaneously with 3 test wells (35–45 oocytes per well supplemented with test compound).
The oocytes were cultured in a humidified atmosphere of 5% CO2 in air for 24 hours at 37° C. By the end of the culture period, the number of oocytes with GV, GVB and polar bodies (hereinafter designated PB), respectively, were counted using a stereo microscope (Wildt, Leica MZ 12). The percentage of GVB, defined as percentage of oocytes undergoing GVB per total number of oocytes in that well, was calculated as: % GVB=((number of GVB+number of PB)/total number of oocytes)×100.
FF-MAS was dissolved in ethanol (25 μg FF-MAS/ml ethanol). HSA is dissolved in water (1%). 100 μl of the above mentioned ethanol solution (corresponding to the amount of FF-MAS needed for one treatment) and 350 μl of the above-mentioned HSA solution were mixed in a glass vial. The resulting mixture of FF-MAS and HSA was evaporated to dryness by airflow of argon. After the liquid was evaporated, the vial was sealed by a rubber septum and the vial was placed at a temperature of 2–8° C. At the time for usage, 500 μl of freshly prepared IVM media was added to the residue in the vial and shaken calmly for 1–2 minutes. The IVM media used was TCM 199 with Earle's salts (Sigma) to which was added 0.8% HSA, 2 mM L-glutamine, 0.25 mM sodium pyrovate, 100 IU/ml penicillin G, and 100 microgram/ml streptomycin. The liquid was transferred to a 4-well dish and the composition was tested on oocytes obtained from immature female mice. Percentage GVB obtained, see below in Table 1.
FF-MAS was dissolved in ethanol (20 μg FF-MAS/ml ethanol) and HSA was dissolved in water (1%). 100 μl of the above mentioned ethanol solution (corresponding to the amount of FF-MAS needed for one treatment) and 250 μl of the above-mentioned HSA solution were mixed and 350 μl of the combined liquid was aliquoted in a glass vials. The vials were placed at −80° C. for one night. All samples were thereafter freeze-dried at −45° C. for 16 hours followed by 8 hours freeze drying at −15° C. and 8 hours freeze drying at +25° C. Before the freeze dryer was opened all vials were automatically sealed with rubber septums by a pressure of nitrogen. The vials were closed with a capsule and placed at a temperature of 2–8° C. […]

## CC(C)=CCC[C@@H](C)[C@H]1CC=C2C3=C(CC[C@@]21C)[C@@]1(C)CC[C@H](O)C(C)(C)[C@@H]1CC3 [FF-MAS, 4,4-dimethyl-5α-cholesta-8,14,24-triene-3β-ol]
[1]; ethanol/water (1:2.5), aqueous with cosolvent or surfactant or cyclodextrin, ethanol and water (1:2.5), preliminary investigations, read-out: highest solubility of FF-MAS in a mixture of ethanol and water
  solubility: ~400 µg/mL (≈ 0.974 mM)
[1]; in water
  solubility of FF-MAS in water: approximately 20 picogram/ml
[1]; organic solvent or mixture, in ethanol, read-out: solubility of FF-MAS in ethanol
  solubility: ~12000 µg/mL (≈ 29.2 mM)
[2]; Dose FF-MAS 0.24 μmol/l, in combination with HSA 6 mg/ml, Example 3
  % GVB: 86%
[2]; Dose FF-MAS 0.48 μmol/l, in combination with HSA 6 mg/ml, Example 3
  % GVB: 88%
[2]; Dose FF-MAS 1.2 μmol/l, in combination with HSA 6 mg/ml, Example 3
  % GVB: 91%
[2]; Dose FF-MAS 2.4 μmol/l, in combination with HSA 6 mg/ml, Example 3
  % GVB: 97%
[2]; Dose FF-MAS 10 μmol/l, internal control dissolved in ethanol, Example 3
  % GVB: 43%
[2]; Dose FF-MAS 10 μmol/l, internal control dissolved in ethanol, Example 4, first test
  % GVB: 85%
[2]; Dose FF-MAS 10 μmol/l, internal control dissolved in ethanol, Example 4, second test
  % GVB: 83%
[2]; Dose FF-MAS 10 μmol/l, internal control dissolved in ethanol, Example 8, 5 tests
  % GVB: 85%
